{"source": "patent US10130655B2", "about": "“Composition and method for pre-surgical skin disinfection” (GOJO INDUSTRIES, INC., priority 2006, dated 2018)", "assay": "Irritation potential, independent laboratory testing (Total Cumulative Irritation, Berger & Bowman)", "conditions": "in vivo", "text": "Independent laboratory testing compared irritation potential of commercial products, controls, and a disinfecting composition according to the present invention.", "data": [{"molecule": "CCCCCCCCCCCCOS(=O)(=O)[O-].[Na+]", "note": "[Sodium Lauryl Sulfate]", "values": [{"measurement": "Berger & Bowman Classification", "result": "Possibly Mild in use"}, {"measurement": "CIT Score (Total Cumulative Irritation)", "result": 1321.0}]}]}
